Data published in EP0504290B1, “INHIBITORS OF PNEUMOCYSTIS CARINII DIHYDROFOLATE REDUCTASE” (CHIRON CORPORATION, priority 1989, dated 1991).
pIC50, pKi: −log10 of the molar value. Read-outs that look alike come from different tables or passages of the source.

Legend:
P. carinii DHFR = P. carinii DHFR (Pneumocystis carinii, UniProt P16184); experiment: biochemical
[1] = target: Pneumocystis carinii DHFR (Pneumocystis carinii, UniProt P16184); experiment: biochemical
recombinant human DHFR = target: T1, recombinant human DHFR (Homo sapiens, UniProt P00374); experiment: Inhibition of recombinant human DHFR activity by substituted phenyl triazines at 25 µM DHF; type: biochemical
T1 sequence (P00374 1-187): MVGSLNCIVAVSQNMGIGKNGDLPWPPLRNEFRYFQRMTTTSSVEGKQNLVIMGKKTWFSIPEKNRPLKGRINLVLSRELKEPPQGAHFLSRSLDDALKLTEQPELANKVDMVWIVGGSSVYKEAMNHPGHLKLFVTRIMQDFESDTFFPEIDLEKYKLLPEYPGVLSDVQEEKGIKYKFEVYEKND

[2] = ratio of human DHFR Ki to P. carinii DHFR Ki

P. carinii DHFR, sequence (P16184 whole entry): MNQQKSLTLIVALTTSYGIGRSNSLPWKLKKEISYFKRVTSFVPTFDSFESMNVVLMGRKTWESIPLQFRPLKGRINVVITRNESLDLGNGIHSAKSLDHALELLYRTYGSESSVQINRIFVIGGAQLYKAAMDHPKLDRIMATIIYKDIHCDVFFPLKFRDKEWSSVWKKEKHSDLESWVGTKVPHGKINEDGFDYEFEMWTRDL
Pneumocystis carinii DHFR, sequence (P16184 whole entry): as above

Structure (SMILES) | pIC50 [1] | Selectivity, Ki (human)/Ki(Pc) [1, 2] | pIC50 (recombinant human DHFR) | other results
CC1(C)N=C(N)N=C(N)N1c1ccc(O)cc1 [-OH] | – | – | – | pIC50 (P. carinii DHFR): 3.60; pKi (P. carinii DHFR): 6.06
CC1(C)N=C(N)N=C(N)N1c1cccc([N+](=O)[O-])c1 [Substituent 3-NO2] | 5.02 | 0.7 | 5.56 | –
CC(=O)c1cccc(N2C(N)=NC(N)=NC2(C)C)c1 [Substituent 3-COCH3] | – | – | 4.68 | –
CCCCCCCCCCCCCCOc1cccc(N2C(N)=NC(N)=NC2(C)C)c1 [3-O(CH2)13CH3] | 4.63 | 2.3 | 4.50 | –
CCOc1cccc(N2C(N)=NC(N)=NC2(C)C)c1 [Substituent 3-OEt] | – | – | 4.86 | –
CC(=O)Nc1cccc(OCc2cccc(N3C(N)=NC(N)=NC3(C)C)c2)c1 [3-CH2Oϕ, 3'NHAc] | 6.64 | – | – | –
CC1(C)N=C(N)N=C(N)N1c1ccc(Cl)cc1 [Substituent 4-Cl, 4,6-diamino-1-(p-chlorophenyl)1,2-dihydro-2,2-dimethyl-s-triazine, reference compound] | 5.12 | – | – | pIC50 (P. carinii DHFR): 4.70; pKi (P. carinii DHFR): 7.15; pKi [1]: 6.96; times more tightly bound to human DHFR than to P. carinii DHFR (recombinant human DHFR; human DHFR versus P. carinii DHFR): ~2.5 times
CC1(C)N=C(N)N=C(N)N1c1cccc(OCCOc2cccc(C(F)(F)F)c2)c1 [3-O(CH2)20ϕ, 3'CF3] | 5.80 | – | – | –
CC1(C)N=C(N)N=C(N)N1c1ccc([N+](=O)[O-])cc1 [-NO2] | – | – | – | pIC50 (P. carinii DHFR): < 2.08; pKi (P. carinii DHFR): < 5.54
COc1ccc(N2C(N)=NC(N)=NC2(C)C)cc1 [-OCH3] | – | – | – | pIC50 (P. carinii DHFR): 4.05; pKi (P. carinii DHFR): 6.50
COc1cccc(OCc2cccc(N3C(N)=NC(N)=NC3(C)C)c2)c1 [3-CH2Oϕ, 3'OCH3] | 6.26 | 1.1 | 6.44 | –
CC1(C)N=C(N)N=C(N)N1c1cccc(COc2cccc(Cl)c2)c1 [3-CH20ϕ, 3'Cl] | 6.07 | 0.9 | 6.33 | –
CC1(C)N=C(N)N=C(N)N1c1cccc(CNc2ccc(C#N)cc2)c1 [3-CH2NHϕ, 4'CN] | 6.22 | 1.5 | 6.28 | –
CC1(C)N=C(N)N=C(N)N1c1cccc(COc2ccc(Cl)c(Cl)c2Cl)c1 [3-CH2Oϕ, 2',3',4'Cl3] | 6.25 | 2.5 | 6.09 | –
CCCCCCOc1cccc(N2C(N)=NC(N)=NC2(C)C)c1 [3-O(CH2)5CH3] | 5.82 | 7.2 | 5.19 | –
CCOC(=O)c1cccc(N2C(N)=NC(N)=NC2(C)C)c1 [Substituent 3-CO2Et] | 3.78 | 1.2 | 3.94 | –
CC1(C)N=C(N)N=C(N)N1c1cccc(COc2cccc(CO)c2)c1 [3-CH2Oϕ, 3'CH2OH] | 5.74 | 0.9 | 6.01 | –
Cc1ccc(N2C(N)=NC(N)=NC2(C)C)cc1 [-CH3] | – | – | – | pIC50 (P. carinii DHFR): 4.52; pKi (P. carinii DHFR): 6.98
CC1(C)N=C(N)N=C(N)N1c1cccc(CNc2cc(C(N)=O)cc(C(N)=O)c2)c1 [3-CH2NHϕ, 3',5'(CONH2)2] | 5.97 | – | 5.55 | Selectivity, Ki (human)/Ki(Pc) [1]: 4.5
CC1(C)N=C(N)N=C(N)N1c1ccc(C(F)(F)F)cc1 [-CF3] | – | – | – | pIC50 (P. carinii DHFR; 100 µM NADPH, 100 µM DHF, 1 nM P. carinii DHFR, 25 C, read-out: IC5O (100 µM DHF)): 4.60; pKi (P. carinii DHFR; read-out: Ki): 7.06
Cc1cccc(OCc2cccc(N3C(N)=NC(N)=NC3(C)C)c2)c1 [3-CH20ϕ, 3'CH3] | 5.85 | 0.8 | 6.19 | –
CCCCCCCCCCCOc1cccc(N2C(N)=NC(N)=NC2(C)C)c1 [3-O(CH2)10CH3] | 5.88 | 11.3 | 5.06 | –
CC1(C)N=C(N)N=C(N)N1c1cccc(OCc2ccccc2)c1 [Substituent 3-OCH2ϕ] | 5.34 | – | – | –
CC1(C)N=C(N)N=C(N)N1c1cccc(COc2cccc3ccccc23)c1 [3-CH20(a)Naphthyl] | 6.44 | – | 6.25 | Selectivity, Ki (human)/Ki(Pc) [1]: 2.6
